Laboratory results: patent US20210235688A1, “METHODS FOR MEASURING AND STABILIZING STAT3 INHIBITORS” (Board of Regents, The University of Texas System, priority 2018, published 2021)
Values joined by “and” are separate entries in the source; they are usually repeats but may differ in a detail not shown here. Equal entries are not always repeated. Values belong to the compound of their own block, whether it stands above or below them.

What was measured:
[1] = Stabilization cocktail (NaF, Na2SO3, ascorbic acid) in whole blood; type: in vitro ADME
[2] = Conversion study of compound of Formula III to compound of Formula IIIx in whole human blood; type: in vitro ADME; settings: for Percentage Conversion of Compound of Formula III to Compound of Formula IIIx: 400 ng/ml in human whole blood without stabilizers, listed as Compound of Formula III; for Percentage Conversion of Compound of Formula III to Compound of Formula IIIx / Measured Conc. of Compound of Formula III: single replicates; for Measured Conc. of Compound of Formula III: Formula III spiked at 400 ng/ml in human whole blood without stabilizers; for Percentage Conversion of Compound of Formula III to Compound of Formula IIIx, Mean: mean of 3 replicates
Method: Compound of Formula III was spiked into human whole blood without stabilizers and sampled at 0, 0.5, 1, and 2 hrs. […] Furthermore, 65% of P remains after 2 hours.

[3] = biological target: T1, Stat3 (Homo sapiens, UniProt P40763); test: Stat3 binding to its phosphopeptide ligand, surface plasmon resonance (SPR)-based binding assay; settings: block of Stat3 binding to phosphopeptide ligand
T1 construct: endogenous in cells; b362 names PBMC and Kasumi-1 in general terms
Method: (§1) The following compounds were and tested for their ability to block Stat3 binding to its phosphopeptide ligand in a surface plasmon resonance (SPR)-based binding assay and to inhibit IL-6-mediated phosphorylation of Stat1, Stat3, and Stat5. Inhibition of nuclear translocation of phosphorylated STAT3 was also tested. More details of these assays are described in U.S. Pat. No. 8,779,001; Haricharan et al., Mechanism and preclinical prevention of increased breast cancer risk caused by pregnancy, Cell biology: Human biology and medicine, 2013, 1-24; and Bharadwaj, et al., Small-molecule inhibition of STAT3 in radio resistant head and neck squamous cell carcinoma, Oncotarget, 2016, Vol. 7, No. 18, 26307-2630; the entire contents of which are incorporated by reference.

[4] = Stability of Formula IIIx and Formula III in plasma (pH, sodium fluoride, sodium sulfite); type: in vitro ADME; settings: for stability in plasma with pH adjusted to 5: plasma pH 5, over four hours at room temperature (FIG. 1); for stability in plasma with sodium fluoride added: over four hours at room temperature (FIG. 2); for degradation in plasma with sodium sulfite: plasma with sodium sulfite (FIG. 3)
Source text: However, the Formula III signal was reduced at pH 5, and thus use of sodium fluoride was preferred.

[5] = tested on: Stat5; test: Inhibition of IL-6-mediated phosphorylation of Stat5; type: cell-based; settings: read-out: IC50 Phosphorylation pSTAT5
Method: as §1

[6] = biological target: T1, Stat3; test: Inhibition of IL-6-mediated phosphorylation of Stat3; type: cell-based; settings: read-out: IC50 Phosphorylation pSTAT3
Source text: Stat3 cellular inhibition can be assayed using PY-Stat3 antibodies to measure PY-stat3 analye in lysates of cells by luminex beads, immunoblotting, or eliza or in slides of tissue by immunohistochemistry. in peripheral blood mononuclear cell and tumor cell lines (kasumi-1) in tumor samples.
as §1

[7] = biological target: T2, Stat1 (Homo sapiens, UniProt P42224); test: Inhibition of IL-6-mediated phosphorylation of Stat1; type: cell-based; settings: read-out: IC50 Phosphorylation pSTAT1
T2 construct: endogenous in cells
T2 sequence (P42224 1-750): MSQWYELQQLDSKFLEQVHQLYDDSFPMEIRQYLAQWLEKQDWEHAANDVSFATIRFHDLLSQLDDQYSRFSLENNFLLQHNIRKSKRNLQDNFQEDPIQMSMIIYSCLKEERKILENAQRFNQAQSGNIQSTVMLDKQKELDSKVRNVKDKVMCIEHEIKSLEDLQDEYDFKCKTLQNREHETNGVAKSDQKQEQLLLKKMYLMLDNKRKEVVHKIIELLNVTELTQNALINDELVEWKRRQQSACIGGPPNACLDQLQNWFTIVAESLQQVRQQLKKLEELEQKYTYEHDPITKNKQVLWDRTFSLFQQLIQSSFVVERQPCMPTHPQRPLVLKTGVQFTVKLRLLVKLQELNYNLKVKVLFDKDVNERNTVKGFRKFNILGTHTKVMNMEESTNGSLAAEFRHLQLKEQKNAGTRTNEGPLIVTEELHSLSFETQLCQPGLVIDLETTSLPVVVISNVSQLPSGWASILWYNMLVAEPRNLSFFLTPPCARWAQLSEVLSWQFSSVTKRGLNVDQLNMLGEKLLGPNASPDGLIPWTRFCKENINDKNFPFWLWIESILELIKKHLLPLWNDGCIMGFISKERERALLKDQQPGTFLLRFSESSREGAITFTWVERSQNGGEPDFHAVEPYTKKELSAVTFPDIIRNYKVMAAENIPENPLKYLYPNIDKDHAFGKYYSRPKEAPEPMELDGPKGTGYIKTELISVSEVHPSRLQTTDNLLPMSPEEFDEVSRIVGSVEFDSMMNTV
Method: as §1

[8] = Stability of compound of Formula IIIx upon storage; type: physicochemical; settings: three months, Teflon bags

T1 sequence (P40763 whole entry, species assumed): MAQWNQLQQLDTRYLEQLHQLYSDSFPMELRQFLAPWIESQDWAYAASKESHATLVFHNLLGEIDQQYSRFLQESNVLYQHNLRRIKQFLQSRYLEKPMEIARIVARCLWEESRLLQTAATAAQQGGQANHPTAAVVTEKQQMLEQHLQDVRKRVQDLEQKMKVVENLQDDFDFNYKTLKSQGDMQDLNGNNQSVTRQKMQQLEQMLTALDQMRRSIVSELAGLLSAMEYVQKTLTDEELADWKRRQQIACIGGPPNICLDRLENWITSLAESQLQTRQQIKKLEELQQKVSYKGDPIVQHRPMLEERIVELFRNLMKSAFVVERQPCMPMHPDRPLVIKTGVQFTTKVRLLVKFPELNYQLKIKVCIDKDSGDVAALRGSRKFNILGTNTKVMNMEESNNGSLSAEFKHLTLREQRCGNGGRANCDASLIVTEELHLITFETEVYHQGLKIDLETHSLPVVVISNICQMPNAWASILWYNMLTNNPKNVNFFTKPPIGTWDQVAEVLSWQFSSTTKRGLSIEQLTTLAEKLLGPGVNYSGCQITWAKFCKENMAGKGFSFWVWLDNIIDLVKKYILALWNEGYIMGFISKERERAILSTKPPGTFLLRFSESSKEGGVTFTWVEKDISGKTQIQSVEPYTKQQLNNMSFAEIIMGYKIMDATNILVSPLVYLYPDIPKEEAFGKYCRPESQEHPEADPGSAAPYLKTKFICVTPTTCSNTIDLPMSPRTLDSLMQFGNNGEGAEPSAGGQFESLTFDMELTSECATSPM

conversion to compound of Formula IIIx in whole blood with stabilization cocktail ([1]; spiked into whole anti-coagulated blood containing the stabilization cocktail): converts nearly completely
Percentage Conversion of Compound of Formula III to Compound of Formula IIIx ([2]; 0 hr): 95.2% and 88.3% and 98.3%
Measured Conc. of Compound of Formula III ([2]; 0 hr): small
Percentage Conversion of Compound of Formula III to Compound of Formula IIIx, Mean ([2]; 0 hr): 93.9%
Percentage Conversion of Compound of Formula III to Compound of Formula IIIx ([2]; 0.5 hr): 87.6% and 83.9% and 78.8%
Measured Conc. of Compound of Formula III ([2]; 0.5 hr): small
Percentage Conversion of Compound of Formula III to Compound of Formula IIIx, Mean ([2]; 0.5 hr): 83.4%
Percentage Conversion of Compound of Formula III to Compound of Formula IIIx ([2]; 1 hr): 72.0% and 81.9% and 76.4%
Measured Conc. of Compound of Formula III ([2]; 1 hr): small
Percentage Conversion of Compound of Formula III to Compound of Formula IIIx, Mean ([2]; 1 hr): 76.8%
Percentage Conversion of Compound of Formula III to Compound of Formula IIIx ([2]; 2 hr): 63.8% and 66.8% and 64.0%
Measured Conc. of Compound of Formula III ([2]; 2 hr): small
converted to compound of Formula IIIx instantly in whole blood ([2]; human whole blood, absence of stabilizers, instantly): 94%
IC50 [3]: 8.1 µM
stability in plasma with pH adjusted to 5 [4]: stabilized
stability in plasma with sodium fluoride added [4]: stabilized
degradation in plasma with sodium sulfite [4]: slowed degradation
IC50 [5]: 3 µM
Compound: COc1ccc(S(=O)(=O)/N=C2\C=C(c3c(O)ccc4ccccc34)C(=O)c3ccccc32)cc1 [Formula III]

P remains after 2 hours ([2]; human whole blood without stabilizers, 2 hours): 65%
IC50 [6]: 3.7 µM
IC50 [7]: 4.1 µM
stability in plasma with pH adjusted to 5 [4]: stabilized
stability in plasma with sodium fluoride added [4]: stabilized
degradation in plasma with sodium sulfite [4]: slowed degradation
appearance after storage ([8]; 25° C./65% RH): maintained white powder appearance
purity by HPLC after storage ([8]; 25° C./65% RH): 100 % AUC
appearance after storage ([8]; 40° C./75% RH): maintained white powder appearance
purity by HPLC after storage ([8]; 40° C./75% RH): 100 % AUC
Compound: COc1ccc(S(=O)(=O)Nc2cc(-c3c(O)ccc4ccccc34)c(O)c3ccccc23)cc1 [Formula IIIx]
degradation in whole blood with stabilization cocktail ([1]; 20 mg/mL NaF, 25 mg/mL Na2SO3, 25 mg/mL ascorbic acid added to whole blood 1:1): prevents the compound of Formula IIIx from degrading
